Assays:
HPCs [1] = experiment: In situ perfusion of mouse hind limb, CFU-HPC in perfusate; details: for HPC mobilization from the bone marrow: FIG. 21b
Description: 24 hours after the last injection, mice underwent perfusion of the right hind limb. […] The hind limb was then perfused for a further 50 minutes to allow collection of b, CFU-HPC; c, CFU-EPC; or d, CFU-SPC; via the femoral vein. CFU-HPC, CFU-EPC, and CFU-SPC are shown as total number of colonies collected in the perfusate. n=5-8 mice per group. Data: means±s.e.m. *: P<0.05, **: P<0.01, ***: P<0.001 between selected groups.
Female BALB/c mice were purchased from Harlan (Oxford, United Kingdom).
(§3) On day 5 following pre-treatment of growth factors, mice were anaesthetized and the femoral artery and vein exposed. The hind limb was isolated by occlusion of the external iliac artery, superficial epigastric and muscular branch. Polyethylene cannulae (Portex, London, UK) were immediately inserted into the femoral artery and vein as previously described (Martin et al., 2003; 2006; Wengner et al., 2008). Perfusion buffer was infused via the arterial cannula and removed from the venous cannula using a Minipuls peristaltic pump (Anachem, Luton, UK). The hind limb was perfused for an initial 2 minutes to remove remaining blood from the vasculature and then perfused for a further 60 min with vehicle alone or the CXCR4 antagonist (AMD3100, 0.1 mM), infused over the first 10 minutes using an infusion/withdrawal pump (Harvard Instruments, U.K.).
The perfusate was centrifuged and re-suspended in DMEM+20% FBS. […] Bone marrow, perfusate and lysed blood were then used for assays outlined below to enumerate HPCs (CFU-HPC), EPCs (CFU-EPC), SPCs (CFU-F).
5×10^4 cells were added to Methocult medium (Stem cell technologies) supplemented with specific cytokines and growth factors to enable formation of CFU-HPC. Mobilized cells were incubated for 11 days before quantification. Further characteristics of CFU-HPC colonies were obtained on day 12, namely the mean number of cells in each colony, and the mean colony area. The mean colony area (mm^2) was determined by image analysis using Scion Image analysis program (NIH). The cell number was determined by diluting colonies grown in Methocult into DMEM (to disperse the methylcellulose) and aspirating the colonies into a single cell suspension before obtaining a cell count.
(§4) The total number of colony forming units mobilized was calculated according to the number of colonies per plate×by the total number of leukocytes mobilized/number of cells seeded.

EPCs [2] = experiment: Circulating CFU-EPC in blood; assay type: in vivo, mice; details: FIG. 20c
SPCs [3] = experiment: In situ perfusion of mouse hind limb, CFU-SPC in perfusate; assay type: in vivo, mice; details: for SPC mobilization from the bone marrow: FIG. 21d
Description: a, overview of procedures set up for identifying the direct mobilization of progenitor cells from the femoral bone marrow. […] 24 hours after the last injection, mice underwent perfusion of the right hind limb. CXCR4 antagonist (AMD3100 0.1 mM, closed bars) or vehicle (PBS, open bars) were then infused directly into the femoral artery for 10 minutes. The hind limb was then perfused for a further 50 minutes to allow collection of b, CFU-HPC; c, CFU-EPC; or d, CFU-SPC; via the femoral vein. CFU-HPC, CFU-EPC, and CFU-SPC are shown as total number of colonies collected in the perfusate. n=5-8 mice per group. Data: means±s.e.m. *: P<0.05, **: P<0.01, ***: P<0.001 between selected groups.
24 hours after the last injection, mice were administered a CXCR4 antagonist (AMD3100, 5 mg/kg i.p), KC (30 μg/kg i.v.) or vehicle and blood was collected via cardiac puncture 60 minutes later for enumeration of circulating leukocyte, HPC, EPC, and stromal progenitor cell levels.
as §3
(§5) The perfusate was centrifuged and re-suspended in DMEM+20% FBS. In some experiments citrated blood was obtained via cardiac bleed and lysed for red blood cells. Bone marrow and perfusate cytospins, and blood smears were stained using DiffQuik for the enumeration of mononuclear cells, eosinophils, and neutrophils. Bone marrow, perfusate and lysed blood were then used for assays outlined below to enumerate HPCs (CFU-HPC), EPCs (CFU-EPC), SPCs (CFU-F).
(§6) 5×10^5 cells were added to Mesencult media including supplements (Stemcell Technologies). Dishes were incubated for 7 days before media was changed, and then incubated for a further 14 days before the enumeration of SPC colonies (CFU-F).
as §4

neutrophils [4] = experiment: Neutrophil mobilization, in situ perfusion of hind limb; details: VEGF (50 nM) infused acutely with CXCR4 antagonist, FIG. 24b
Description: 24 hours later these mice underwent perfusion of the right hind limb. CXCR4 antagonist (AMD3100 0.1 mM, closed bars) or vehicle (PBS, open bars) were then infused directly into the femoral artery for 10 minutes. The hind limb was then perfused for a further 50 minutes to allow collection of a, neutrophils via the femoral vein. […] The hind limb was again perfused for a further 50 minutes to allow b, collection of neutrophils. […] Data: mean±s.e.m. *: P<0.05, ***: P<0.001 between selected groups.
On day 5 following pre-treatment of growth factors, mice were anaesthetized and the femoral artery and vein exposed. The hind limb was isolated by occlusion of the external iliac artery, superficial epigastric and muscular branch. […] Perfusion buffer was infused via the arterial cannula and removed from the venous cannula using a Minipuls peristaltic pump (Anachem, Luton, UK). The hind limb was perfused for an initial 2 minutes to remove remaining blood from the vasculature and then perfused for a further 60 min with vehicle alone or the CXCR4 antagonist (AMD3100, 0.1 mM), infused over the first 10 minutes using an infusion/withdrawal pump (Harvard Instruments, U.K.).
The perfusate was centrifuged and re-suspended in DMEM+20% FBS.

CD34^+ VEGFR2^+ EPCs = experiment: PI staining, cell cycle status of CD34+ VEGFR2+ EPCs; assay type: in vivo, mice; details: treated 4 days, FIG. 25d
Description: For flow cytometric analysis, cells were re-suspended in FACS buffer. To identify neutrophils in the bone marrow, surface expression of the granulocyte marker Ly-6G/Ly6C (Gr-1) was determined. Neutrophils were identified as Gr-1^high positive cells with a characteristic high side scatter profile. HPCs residing in the BM were selected as being negative for lineage (Lin^−) markers: CD3e, CD11b, CD45R, Ly-76, and Gr-1 and positive for Sca-1 (Lin^− Sca-1^+ cells) (Gerber et al., 2002; Uchida, et al., 1997). EPCs residing in the BM were selected as being positive for both CD34 and VEGFR2 (CD34^+ VEGFR2^+ cells) (Asahara et al., 1997; Yoon et al., 2005). […] Samples were then washed and then quantified on a FACSAria cell sorter (BD Biosciences, Oxford, United Kingdom) and analysed using FACSDiva software.
Lin^− Sca-1^+ cells and CD34^+ VEGFR2^+ cells were analysed to determine their cell cycling status using a propidium iodide (PI) stain. […] A dotplot of PI-Width against PI-Area was recorded. Aggregates of cells were detected as cells having a larger PI-W profile and were not included in the gate. […] To calculate the percentage of cells undergoing active cell cycling, a marker was set to exclude the G0/G1 peak and the percentage of cells in S/G2/M was calculated.

EPCs [5] = experiment: CFU-EPC bone marrow frequency; assay type: in vivo, mice; details: treated over 4 days, compared to controls, FIG. 22b
neutrophils [6] = experiment: Leukocyte counts of bone marrow; assay type: in vivo, mice; details: treated 4 days, compared to controls, FIG. 24f
Description: 24 hours later these mice underwent perfusion of the right hind limb. CXCR4 antagonist (AMD3100 0.1 mM, closed bars) or vehicle (PBS, open bars) were then infused directly into the femoral artery for 10 minutes. The hind limb was then perfused for a further 50 minutes to allow collection of a, neutrophils via the femoral vein. […] The hind limb was again perfused for a further 50 minutes to allow b, collection of neutrophils.
The perfusate was centrifuged and re-suspended in DMEM+20% FBS. […] Bone marrow and perfusate cytospins, and blood smears were stained using DiffQuik for the enumeration of mononuclear cells, eosinophils, and neutrophils.

HPC colonies = details: colonies grown from bone marrow of treated mice, FIGS. 25a, 25b
Description: a, number of cells per colony; and b, mean colony area; of CFU-HPC grown for […] in methocult.
(§1) Mobilized cells were incubated for 11 days before quantification.

[7] = system: mesenchymal stem cells (MSC); experiment: Example 1: MSC mobilisation, hind limb bone marrow perfusion and circulating blood, CFU-MSC assay; assay type: in vivo, mice; details: perfusate and blood, FIGS. 9-12
Description: 4×10^5 cells were added to 3 ml Mesencult media including supplements (05501 and 05502 Stemcell Technologies). Assay was performed in duplicate.

HPCs [8] = details: treated over 4 days, compared to controls, FIG. 22a
Description: 24 hours after the last injection, bone marrow was aspirated for the enumeration of a, CFU-HPC bone marrow frequency; b, CFU-EPC bone marrow frequency; and c, CFU-SPC bone marrow frequency.
as §1

neutrophils [9] = details: VEGF-treated mice, KC 30 nM, FIG. 24e
Description: Bone marrow-derived neutrophils were tested for migration towards KC (30 nM) using 3 μm pore sized transwell chemotaxis plates as previously described (Wengner et al., 2008). To measure HPC and EPC migration towards SDF-1α, murine bone marrow cells (2×10^6 cells) were placed in the upper chamber of transwell inserts (5 μm pore size Corning). These in turn were placed in individual wells of a 24 well cell culture plate with 30 nM SDF-1α added. Chambers were incubated for 4 hours at 37° C. and migrated cells were then placed in methocult or EPC colony media as described above for the enumeration of CFU-HPC and CFU-EPC respectively.

CXCR4 = experiment: Flow cytometry of CXCR4 expression on bone marrow HPCs and EPCs; assay type: in vivo, mice; details: treated 4 days
Description: Bone marrow was aspirated on day 5 and harvested cells were used to determine a, SDF-1α levels in bone marrow supernatant as determined by ELISA; b, % of bone marrow Lin^− Sca-1^+ cells expressing CXCR4; and c, % of bone marrow CD34^+ VEGFR2^+ cells expressing CXCR4. Harvested cells were also utilized in the following chemotaxis assays: d, number of HPCs; and e, EPCs undergoing chemotaxis towards 30 nM SDF-1α. Cells taken from bone marrow of mice treated with G-CSF (closed bars) or vehicle (PBS, open bars). f, number of HPCs; and g, EPCs undergoing chemotaxis towards 30 nM SDF-1α.
(§2) For flow cytometric analysis, cells were re-suspended in FACS buffer. To identify neutrophils in the bone marrow, surface expression of the granulocyte marker Ly-6G/Ly6C (Gr-1) was determined. Neutrophils were identified as Gr-1^high positive cells with a characteristic high side scatter profile. HPCs residing in the BM were selected as being negative for lineage (Lin^−) markers: CD3e, CD11b, CD45R, Ly-76, and Gr-1 and positive for Sca-1 (Lin^− Sca-1^+ cells) (Gerber et al., 2002; Uchida, et al., 1997). EPCs residing in the BM were selected as being positive for both CD34 and VEGFR2 (CD34^+ VEGFR2^+ cells) (Asahara et al., 1997; Yoon et al., 2005). Furthermore, neutrophils were stained for the surface expression of CXCR2, whilst Lin^− Sca-1^+ cells and CD34^+ VEGFR2^+ cells were stained for the cell surface expression of CXCR4. Samples were then washed and then quantified on a FACSAria cell sorter (BD Biosciences, Oxford, United Kingdom) and analysed using FACSDiva software.

CXCR2 = experiment: Flow cytometry of CXCR2 expression on bone marrow neutrophils; assay type: in vivo; details: VEGF-treated mice, FIG. 24d
Description: as §2

[10] = system: endothelial progenitor cells (EPC); experiment: Example 1: EPC mobilisation, hind limb bone marrow perfusion and circulating blood, CFU-EPC assay; details: G-CSF or VEGF 2.5 μg on 4 consecutive days, then AMD3100; perfusate and blood, FIGS. 5-8
Description: 24 hours after the last injection, mice were administered a CXCR4 antagonist (AMD3100, 5 mg/kg i.p), or vehicle and blood was collected via cardiac puncture 1 hour later for enumeration of circulating leukocyte, HPC, EPC and MSC levels.
On day 5, mice were anaesthetized with urethane (25% 0.2 ml i.p.) and the femoral artery and vein exposed. The hind limb was isolated by occlusion of the external iliac artery, superficial epigastric and muscular branch with 5/0 braided silk suture. Polyethylene cannulae (0.61 mm OD, Portex, London, UK) were immediately inserted into the femoral artery and vein and tied in place with 5/0 braided silk suture. Perfusion buffer (modified Krebs-Ringer bicarbonate buffer) at 37° C. was infused (0.15 ml/min) via the arterial cannula and removed from the venous cannula using a Minipuls peristaltic pump (Anachem, Luton, UK). The hind limb was perfused for an initial 10 minutes to remove remaining blood from the vasculature and then perfused for a further 60 min with vehicle alone or AMD3100, a CXCR4 antagonist (0.1 mM, Sigma UK) infused over the first 10 minutes using an infusion/withdrawal pump (Harvard Instruments, U.K.).
The perfusate was collected and centrifuged and the cell pellet re-suspended in Dulbecco's modified eagles medium (DMEM) with 20% fetal bovine serum (FBS). A total cell count was performed before the perfusate was lysed for red blood cells, re-suspended again in DMEM (20% FBS) and used for assays outlined below to enumerate haematopoietic progenitor cells (CFU-HPC), endothelial progenitor cells (CFU-EPC), and leukocyte populations.
In some experiments blood was taken to enumerate HPCs, EPCs and leukocytes. A total cell count was performed on citrated blood before being lysed for red blood cells and re-suspended in DMEM (20% FBS).
Assay was performed in duplicate. Dishes were incubated for 7 days before media was changed, and then incubated for a further 14 days before the enumeration of late outgrowth endothelial progenitor cells. Early outgrowth endothelial progenitor cells were enumerated on day 5.
In each of the above assays, the total number of colony forming units mobilised is calculated according to the number of colonies per plate×by the total number of leukocytes mobilized/number of cells seeded.
Mice were anaesthetised and the femoral artery and vein was cannulated such that the femoral bone marrow could be perfused (Martin et al, (2006) Br. J. Haem. 134: 326-329). […]
Mice were injected i.p. with the CXCR4 antagonist, AMD3100, (or vehicle control) and 1 h later the mice were killed. Blood was collected by cardiac puncture and stem cell numbers in the blood were determined. […]

SPCs [11] = experiment: CFU-SPC bone marrow frequency; assay type: in vivo, mice; details: treated over 4 days, compared to controls, FIG. 22c
Description: Female BALB/c mice were purchased from Harlan (Oxford, United Kingdom). […] 24 hours after the last injection, mice were administered a CXCR4 antagonist (AMD3100, 5 mg/kg i.p), KC (30 μg/kg i.v.) or vehicle and blood was collected via cardiac puncture 60 minutes later for enumeration of circulating leukocyte, HPC, EPC, and stromal progenitor cell levels.
as §5, §6

[12] = growth factor pre-treatment 4 days, then CXCR4 antagonist infused

## VEGF
HPCs [1]; VEGF pre-treatment 4 days, then CXCR4 antagonist infused
  reduction of HPC mobilization induced by infusion of the CXCR4 antagonist: 75%
HPCs [1]; agent alone (CXCR4 antagonist 0.1 mM infused 10 min; G-CSF or VEGF pre-treatment 4 days), perfusate over 1 hour
  HPC mobilization from the bone marrow: HPCs and SPCs were not mobilized
HPCs [1]; growth factor (50 nM) infused into femoral artery for 10 minutes, alone, FIG. 31a
  HPC mobilization, acute administration: mobilized both HPCs and EPCs
HPCs [1]; [12]
  HPC mobilization from the bone marrow: almost completely suppressed HPC mobilization
EPCs [2]; agent alone (AMD3100 5 mg/kg i.p., blood at 60 min; G-CSF or VEGF once daily for 4 days)
  circulating numbers of EPCs: increase in EPC numbers
EPCs [2]; growth factor pre-treatment over 4 days, then CXCR4 antagonist AMD3100 5 mg/kg i.p.
  circulating numbers of EPCs: more than additive increase in EPC numbers
SPCs [3]; agent alone (CXCR4 antagonist 0.1 mM infused 10 min; G-CSF or VEGF pre-treatment 4 days)
  SPC mobilization from the bone marrow: HPCs and SPCs were not mobilized
SPCs [3]; growth factor (50 nM) infused acutely, alone or in combination with CXCR4 antagonist, FIG. 31c
  SPC mobilization, acute administration: neither growth factor, when administered acutely or in combination with the CXCR4 antagonist led to mobilization of SPCs
SPCs [3]; [12]
  SPC mobilization from the bone marrow: SPCs were mobilized
Neutrophils [4]
  suppression of neutrophil mobilization in response to the CXCR4 antagonist, acute administration: effect was not seen
CD34^+ VEGFR2^+ EPCs
  percentage of CD34+ VEGFR2+ EPCs in S/G2/M phase of the cell-cycle: did not alter the percentage of CD34^+ VEGFR2^+ EPCs in the S/G2/M phase
EPCs [5]
  frequency/number of EPCs in the bone marrow: no difference was observed
Neutrophils [6]
  numbers of neutrophils in the bone marrow: significant reduction in absolute numbers of mature neutrophils
HPC colonies
  cellular content and size of HPC colonies: significant increase in both their cellular content and size
[7]; G-CSF or VEGF 2.5 μg on 4 consecutive days, then AMD3100
  MSC mobilization: mobilizes MSC into the blood
[7]; agent alone
  MSC mobilization: does not mobilize MSCs
HPCs [8]
  frequency of HPCs in the bone marrow: no difference was observed
Neutrophils [9]
  ability of bone marrow neutrophils to migrate towards KC in vitro: did not affect
CXCR4; CD34+ VEGFR2+ bone marrow cells, FIG. 23c
  CXCR4 expression on EPCs: did not alter the expression of CXCR4 on either HPCs or EPCs
CXCR4; Lin- Sca-1+ bone marrow cells, FIG. 23b
  CXCR4 expression on HPCs: did not alter the expression of CXCR4 on either HPCs or EPCs
CXCR2
  proportion of Gr-1+ bone marrow neutrophils expressing CXCR2: did not affect either the proportion of Gr-1^+ bone marrow neutrophils expressing CXCR2
[10]
  EPC mobilization: additive effect of AMD3100 and VEGF with respect to EPC mobilization
SPCs [11]
  frequency/number of SPCs in the bone marrow: no difference was observed

— patent US8440199B2, “Methods for mobilizing mesenchymal stem cells in a patient” (Imperial Innovations Limited, priority 2007, dated 2013)
